Reference: patent US20090018134A1, “Compounds - 945” (AstraZeneca AB, priority 2007, published 2009)

These compounds were tested against T1, mTOR (Homo sapiens, UniProt P42345) (assay: In Vitro mTOR Kinase Assay (Echo), Test (a)(ii)). Conditions: table of enzyme assay Test (a)(ii); read-out: Test (a)(ii) IC50.
T1 construct: FLAG; made in house
T1 sequence (P42345 1362-2549): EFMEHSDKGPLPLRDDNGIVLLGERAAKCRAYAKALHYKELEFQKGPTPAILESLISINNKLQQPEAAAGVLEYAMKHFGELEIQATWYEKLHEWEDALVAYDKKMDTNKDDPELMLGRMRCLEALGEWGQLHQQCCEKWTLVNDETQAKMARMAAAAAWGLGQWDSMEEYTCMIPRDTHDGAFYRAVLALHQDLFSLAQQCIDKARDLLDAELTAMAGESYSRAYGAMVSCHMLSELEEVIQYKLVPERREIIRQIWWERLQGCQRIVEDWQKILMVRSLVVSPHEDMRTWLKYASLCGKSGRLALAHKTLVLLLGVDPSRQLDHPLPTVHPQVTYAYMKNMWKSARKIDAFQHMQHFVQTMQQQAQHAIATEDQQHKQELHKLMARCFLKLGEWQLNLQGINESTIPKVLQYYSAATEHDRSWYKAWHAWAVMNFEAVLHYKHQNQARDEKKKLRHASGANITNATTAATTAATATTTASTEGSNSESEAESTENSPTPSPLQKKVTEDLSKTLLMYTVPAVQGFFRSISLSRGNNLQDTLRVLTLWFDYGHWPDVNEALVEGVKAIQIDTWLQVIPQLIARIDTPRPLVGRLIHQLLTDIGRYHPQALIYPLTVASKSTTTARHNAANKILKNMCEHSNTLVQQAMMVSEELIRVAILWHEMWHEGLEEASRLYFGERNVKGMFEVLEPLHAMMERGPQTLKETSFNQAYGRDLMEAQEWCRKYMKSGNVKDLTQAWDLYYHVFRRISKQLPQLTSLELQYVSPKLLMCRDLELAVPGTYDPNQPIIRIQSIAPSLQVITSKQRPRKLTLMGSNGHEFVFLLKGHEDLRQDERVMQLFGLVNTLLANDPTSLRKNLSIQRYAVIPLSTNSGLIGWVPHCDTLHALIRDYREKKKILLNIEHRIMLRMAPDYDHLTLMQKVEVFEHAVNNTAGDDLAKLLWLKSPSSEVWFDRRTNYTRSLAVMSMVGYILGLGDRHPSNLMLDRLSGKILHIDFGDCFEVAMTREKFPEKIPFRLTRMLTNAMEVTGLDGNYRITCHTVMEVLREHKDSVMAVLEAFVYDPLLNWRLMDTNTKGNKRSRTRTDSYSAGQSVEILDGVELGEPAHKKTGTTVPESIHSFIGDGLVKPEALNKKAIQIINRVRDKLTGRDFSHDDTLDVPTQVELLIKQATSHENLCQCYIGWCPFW
Format: biochemical
Summary of the method: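 Enzyme: HEK293-expressed, FLAG-purified mTOR C-terminal fragment (aa 1362-2549). Rxn 2 h RT with biotinylated peptide, stopped with EDTA 50 mM/BSA/Tris pH 7.4. Detection: T389 phospho-antibody AlphaScreen, 680 nm excitation. IC50.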
`C[C@H]1COCCN1c1cc(C2(S(=O)(=O)CCCO)CC2)nc(-c2ccc(NC(=O)NC(C)(C)C)cc2)n1` [Example 36cn, 3-tert-butyl-1-[4-[4-[1-(3-hydroxypropylsulfonyl)cyclopropyl]-6-[(3S)-3-methylmorpholin-4-yl]pyrimidin-2-yl]phenyl]urea] was tested, and the IC50 was 0.0858 µM. With `C[C@H]1COCCN1c1cc(C2(S(=O)(=O)CCCO)CC2)nc(-c2ccc(NC(=O)NC#N)cc2)n1` [Example 36co, 3-cyano-1-[4-[4-[1-(3-hydroxypropylsulfonyl)cyclopropyl]-6-[(3S)-3-methylmorpholin-4-yl]pyrimidin-2-yl]phenyl]urea] the IC50 was 1.62 µM. Compound `C[C@H]1COCCN1c1cc(C2(S(=O)(=O)CCCO)CC2)nc(-c2ccc(NC(=O)N3CCC(O)C3)cc2)n1` (stereo partly drawn) [Example 36cp, 3-hydroxy-N-[4-[4-[1-(3-hydroxypropylsulfonyl)cyclopropyl]-6-[(3S)-3-methylmorpholin-4-yl]pyrimidin-2-yl]phenyl]pyrrolidine-1-carboxamide] has an IC50 of 1.26 µM. `C[C@H]1COCCN1c1cc(C2(S(=O)(=O)CCCO)CC2)nc(-c2ccc(NC(=O)NCCS(C)(=O)=O)cc2)n1` [Example 36cq, 1-[4-[4-[1-(3-hydroxypropylsulfonyl)cyclopropyl]-6-[(3S)-3-methylmorpholin-4-yl]pyrimidin-2-yl]phenyl]-3-(2-methylsulfonylethyl)urea] gave an IC50 of 0.114 µM. Work on `C[C@H]1COCCN1c1cc(C2(S(=O)(=O)CCCO)CC2)nc(-c2ccc(NC(=O)NC3CCS(=O)(=O)C3)cc2)n1` (stereo partly drawn) [Example 36cr, 3-(1,1-dioxothiolan-3-yl)-1-[4-[4-[1-(3-hydroxypropylsulfonyl)cyclopropyl]-6-[(3S)-3-methylmorpholin-4-yl]pyrimidin-2-yl]phenyl]urea] yielded an IC50 of 0.0435 µM. In the case of `C[C@H]1COCCN1c1cc(C2(S(=O)(=O)CCCO)CC2)nc(-c2ccc(NC(=O)NCC(=O)N(C)C)cc2)n1` [Example 36cs, 2-[[4-[4-[1-(3-hydroxypropylsulfonyl)cyclopropyl]-6-[(3S)-3-methylmorpholin-4-yl]pyrimidin-2-yl]phenyl]carbamoylamino]-N,N-dimethylactamide], the IC50 is reported as 1.17 µM. With `C[C@H]1COCCN1c1cc(C2(S(=O)(=O)c3ccccn3)CC2)nc(-c2ccc(NC(=O)Nc3ncns3)cc2)n1` [Example 36ct, 1-[4-[4-[(3S)-3-methylmorpholin-4-yl]-6-(1-pyridin-2-ylsulfonylcyclopropyl)pyrimidin-2-yl]phenyl]-3-(1,2,4-thiadiazol-5-yl)urea] the IC50 was 0.00157 µM. `C[C@H]1COCCN1c1cc(C2(S(=O)(=O)c3ccccn3)CC2)nc(-c2ccc(NC(=O)NCc3ncc[nH]3)cc2)n1` [Example 36cu, 3-(1H-imidazol-2-ylmethyl)-1-[4-[4-[(3S)-3-methymorpholin-4-yl]-6-(1-pyridin-2-ylsulfonylcyclopropyl)pyrimidin-2-yl]phenyl]urea] showed an IC50 of 0.0686 µM. Work on `C[C@H]1COCCN1c1cc(C2(S(=O)(=O)c3ccncc3)CC2)nc(-c2ccc(NC(=O)NCc3ncc[nH]3)cc2)n1` [Example 36cw, 3-(1H-imidazol-2-ylmethyl)-1-[4-[4-[(3S)-3-methylmorpholin-4-yl]-6-(1-pyridin-4-ylsulfonylcyclopropyl)pyrimidin-2-yl]phenyl]urea] yielded an IC50 of 0.0493 µM. `C[C@H]1COCCN1c1cc(C2(S(=O)(=O)c3ccncc3)CC2)nc(-c2ccc(NC(=O)NC3(CO)CC3)cc2)n1` [Example 36cx, 3-[1-(hydroxymethyl)cyclopropyl]-1-[4-[4-[(3S)-3-methylmorpholin-4-yl]-6-(1-pyridin-4-ylsulfonylcyclopropyl)pyrimidin-2-yl]phenyl]urea] was tested, and the IC50 was 0.284 µM. `CNC(=O)Nc1ccc(-c2nc(N3CCOC[C@@H]3C)cc(C3(S(=O)(=O)c4ccccc4)CCOCC3)n2)cc1` [Example 36cy, 1-[4-[4-[4-(benzenesulfonyl)oxan-4-yl]-6-[(3S)-3-methylmorpholin-4-yl]pyrimidin-2-yl]phenyl]-3-methylurea] was tested, and the IC50 was 0.0478 µM. `CCNC(=O)Nc1ccc(-c2nc(N3CCOC[C@@H]3C)cc(C3(S(=O)(=O)c4ccccc4)CCOCC3)n2)cc1` [Example 36cz, 3-[4-[4-[4-(benzenesulfonyl)oxan-4-yl]-6-[(3S)-3-methylmorpholin-4-yl]pyrimidin-2-yl]phenyl]-1-ethylurea] gave an IC50 of 0.0384 µM. `CNC(=O)Nc1ccc(-c2nc(N3CCOC[C@@H]3C)cc(C3(S(=O)(=O)C4CC4)CCC3)n2)cc1` [Example 36d, 1-[4-[4-(1-cyclopropylsulfonylcyclobutyl)-6-[(3S)-3-methylmorpholin-4-yl]pyrimidin-2-yl]phenyl]-3-methylurea] gave an IC50 of 0.00317 µM. With `C[C@H]1COCCN1c1cc(C2(S(=O)(=O)c3ccccc3)CCOCC2)nc(-c2ccc(NC(=O)NC3CC3)cc2)n1` [Example 36da, 1-[4-[4-[4-(benzenesulfonyl)oxan-4-yl]-6-[(3S)-3-methylmorpholin-4-yl]pyrimidin-2-yl]phenyl]-3-cyclopropylurea] the IC50 was 0.0331 µM. `C[C@H]1COCCN1c1cc(C2(S(=O)(=O)c3ccccc3)CCOCC2)nc(-c2ccc(NC(=O)NCCO)cc2)n1` [Example 36db, 1-[4-[4-[4-(benzenesulfonyl)oxan-4-yl]-6-[(3S)-3-methylmorpholin-4-yl]pyrimidin-2-yl]phenyl]-3-(2-hydroxyethyl)urea] showed an IC50 of 0.0209 µM. In the case of `O=C(Nc1ccc(-c2nc(N3CCOCC3)cc(C3(S(=O)(=O)c4ccccc4)CC3)n2)cc1)NC1CC1` [Example 36dc, 1-[4-[4-[1-(benzenesulfonyl)cyclopropyl]-6-morpholin-4-ylpyrimidin-2-yl]phenyl]-3-cyclopropylurea], the IC50 is reported as 0.00989 µM. With `CCNC(=O)Nc1ccc(-c2nc(N3CCOCC3)cc(C3(S(=O)(=O)c4ccccc4)CC3)n2)cc1` [Example 36dd, 3-[4-[4-[1-(benzenesulfonyl)cyclopropyl]-6-morpholin-4-ylpyrimidin-2-yl]phenyl]-1-ethylurea] the IC50 was 0.00291 µM. With `O=C(NCCO)Nc1ccc(-c2nc(N3CCOCC3)cc(C3(S(=O)(=O)c4ccccc4)CC3)n2)cc1` [Example 36de, 1-[4-[4-[1-(benzenesulfonyl)cyclopropyl]-6-morpholin-4-ylpyrimidin-2-yl]phenyl]-3-(2-hydroxyethyl)urea] the IC50 was 0.00389 µM. Work on `CNC(=O)Nc1ccc(-c2nc(N3CCOCC3)cc(C3(S(=O)(=O)c4ccccc4)CC3)n2)cc1` [Example 36df, 3-[4-[4-[1-(benzenesulfonyl)cyclopropyl]-6-morpholin-4-ylpyrimidin-2-yl]phenyl]-1-methylurea] yielded an IC50 of 0.00712 µM. Compound `O=C(NCCCO)Nc1ccc(-c2nc(N3CCOCC3)cc(C3(S(=O)(=O)c4ccccc4)CC3)n2)cc1` [Example 36dg, 1-[4-[4-[1-(benzenesulfonyl)cyclopropyl]-6-morpholin-4-ylpyrimidin-2-yl]phenyl]-3-(3-hydroxypropyl)urea] has an IC50 of 0.0164 µM. `N#CCCNC(=O)Nc1ccc(-c2nc(N3CCOCC3)cc(C3(S(=O)(=O)c4ccccc4)CC3)n2)cc1` [Example 36dh, 1-[4-[4-[1-(benzenesulfonyl)cyclopropyl]-6-morpholin-4-ylpyrimidin-2-yl]phenyl]-3-(2-cyanoethyl)urea] showed an IC50 of 0.0034 µM. Compound `O=C(Nc1ccc(-c2nc(N3CCOCC3)cc(C3(S(=O)(=O)c4ccccc4)CC3)n2)cc1)Nc1ncns1` [Example 36di, 1-[4-[4-[1-(benzenesulfonyl)cyclopropyl]-6-morpholin-4-ylpyrimidin-2-yl]phenyl]-3-(1,2,4-thiadiazol-5-yl)urea] has an IC50 of 0.00923 µM. `Cn1cc(NC(=O)Nc2ccc(-c3nc(N4CCOCC4)cc(C4(S(=O)(=O)c5ccccc5)CC4)n3)cc2)cn1` [Example 36dj, 3-[4-[4-[1-(benzenesulfonyl)cyclopropyl]-6-morpholin-4-ylpyrimidin-2-yl]phenyl]-1-(1-methylpyrazol-4-yl)urea] gave an IC50 of 0.00891 µM. `Cc1csc(S(=O)(=O)C2(c3cc(N4CCOC[C@@H]4C)nc(-c4ccc(NC(=O)NC5CC5)cc4)n3)CCCC2)n1` [Example 36dk, 3-cyclopropyl-1-[4-[4-[(3S)-3-methylmorpholin-4-yl]-6-[1-[(4-methyl-1,3-thiazol-2-yl)sulfonyl)cyclopentyl]pyrimidin-2-yl]phenyl]urea] showed an IC50 of 0.00905 µM. `Cc1csc(S(=O)(=O)C2(c3cc(N4CCOC[C@@H]4C)nc(-c4ccc(NC(=O)NCCO)cc4)n3)CCCC2)n1` [Example 36dl, 3-(2-hydroxyethyl)-1-[4-[4-[(3S)-3-methylmorpholin-4-yl]-6-[1-[(4-methyl-1,3-thiazol-2-yl)sulfonyl]cyclopentyl]pyrimidin-2-yl]phenyl]urea] showed an IC50 of 0.00399 µM. `Cc1csc(S(=O)(=O)C2(c3cc(N4CCOC[C@@H]4C)nc(-c4ccc(NC(=O)NCCC#N)cc4)n3)CCCC2)n1` [Example 36dm, 3-(2-cyanoethyl)-1-[4-[4-[(3S)-3-methylmorpholin-4-yl]-6-[1-[(4-methyl-1,3-thiazol-2-yl)sulfonyl]cyclopentyl]pyrimidin-2-yl]phenyl]urea] showed an IC50 of 0.0298 µM. Work on `Cc1csc(S(=O)(=O)C2(c3cc(N4CCOC[C@@H]4C)nc(-c4ccc(NC(=O)NCCCO)cc4)n3)CCCC2)n1` [Example 36dn, 3-(3-hydroxypropyl)-1-[4-[4-[(3S)-3-methylmorpholin-4-yl]-6-[1-[(4-methyl-1,3-thiazol-2-yl)sulfonyl]cyclopentyl]pyrimidin-2-yl]phenyl]urea] yielded an IC50 of 0.0138 µM. `C[C@H]1COCCN1c1cc(C2(S(=O)(=O)c3ccccc3)CC2)nc(-c2ccc(NC(=O)N3CCC(O)C3)cc2)n1` (stereo partly drawn) [Example 36do, N-[4-[4-[1-(benzenesulfonyl)cyclopropyl]-6-[(3S)-3-methylmorpholin-4-yl]pyrimidin-2-yl]phenyl]-3-hydroxypyrrolidine-1-carboxamide] gave an IC50 of 0.0277 µM. In the case of `C[C@H]1COCCN1c1cc(C2(S(=O)(=O)c3ccccc3)CC2)nc(-c2ccc(NC(=O)NCC(=O)O)cc2)n1` [Example 36dp, 2-[[4-[4-[1-(benzenesulfonyl)cyclopropyl]-6-[(3S)-3-methylmorpholin-4-yl]pyrimidin-2-yl]phenyl]carbamoylamino]aceticacid], the IC50 is reported as 0.0106 µM.
